Test results from patent US20080004177A1, “Novel Copper-Containing Formulations” (priority 2003, published 2008).

Tested on: Septoria tritici
Test: Growth assay with Septoria tritici as indicator fungus (photometric)
Assay type: cell-based
Conditions: active ingredient concentration in the spray mixture 1 ppm
Procedure: A growth assay was carried out with Septoria tritici as indicator fungus. The fungal growth was measured photometrically by the increase in absorption or light scattering as a function of mycelium density. The data obtained were converted into percent growth inhibition, the absorption of the untreated controls being defined as 0% inhibition and that of a killed spore suspension as reference as 100% inhibition.
The expected efficacies of combinations of active ingredients were determined using Colby's formula (Colby, S. R. (Calculating synergistic and antagonistic responses of herbicide combinations”, Weeds, 15, pp. 20-22, 1967)) and compared with the observed efficacies.
E=x+y−x·y/100 • E expected efficacy, expressed in % of the untreated control, when using the mixture of the active ingredients A and B at the concentrations a and b • x efficacy, expressed in % of the untreated control, when using the active ingredient A at the concentration a • y efficacy, expressed in % of the untreated control, when using the active ingredient B at the concentration b

COC(=O)N(OC)c1ccccc1COc1ccn(-c2ccc(Cl)cc2)n1 [II, Pyraclostrobin]
Growth inhibition: 57%
